Tests used:
[1] = test system: IL-6 promoter; assay: IL-6 promoter-luciferase assay in RAW264.7 cells; type: cell-based, mouse; settings: LPS 8 h
Procedure: (§1) RAW264.7 macrophages were cotransfected with COX-2 promoter-luciferase, IL-6 promoter-luciferase constructs as previously described (Lee, G. L., et al.) or p5xNF-κB-luciferase (Stratagene) and pcDNA3.1-β-galactosidase plasmids using FuGENE 6 (Roche). After overnight transfection, the cells were incubated with or without LPS in the presence or absence of 5-MTP for 8 h. After treatment, cells were lysed, and luciferase activity was measured using an assay kit (Promega). β-galactosidase activity was used to normalize the data.
Moreover, RAW264.7 cells and IL-6 promoter-luciferase plasmid transfected RAW264.7 cells were pretreated with different concentrations of 5-MTP for 30 min, followed by LPS stimulation for 8 h. IL-6 promoter activity was measured by luciferase assay. IL-6 level in culture supernatants was measured by ELISA.

[2] = test system: CLP; assay: Cecal ligation and puncture (CLP) model, survival; type: in vivo, mice
Text: To confirm the protective effect of 5-MTP in endotoxemia, we used cecal ligation and puncture (CLP) model in mice. 5-MTP-afforded protection was also observed in mice challenged with CLP.

[3] = test system: COX-2; assay: COX-2 immunohistochemistry in lung tissues of LPS-treated mice; type: in vivo; settings: LPS 60 mg/kg; 12 h, 16 h and 24 h
Procedure: (§2) Prior to immunohistochemical detection of COX-2, iNOS, Ly6g, or cleaved caspase-3 in lung sections, sections were deparaffinized with xylene, progressively rehydrated through graded alcohols. Antigen sites were retrieved by heating the sections on slides in pH 8 EDTA antigen. retrieval (Trilogy; Cell Marque Corporation) in electric pressure cooker for 15 min. […] All antibodies described hereafter were diluted in blocking buffer. Sections were incubated at room temperature for 2 h with primary antibody and then washed in PBST. The sections were incubated with primary antibody amplifier quanta (Thermo) for 10 minutes. After rinsing with PBST, the sections were incubated with HRP Polymer Quanto (Thermo) for 10 minutes and washed three times with PBST. COX-2, iNOS, Ly6g and cleaved caspase-3 were visualized by the addition of DAB Quanto Chromogen: Substrate for 3 minutes. Tissues were also counterstained with hematoxylin.
(§3) Moreover, paraffin-embedded sections were prepared from lungs of mice injected with 60 mg/kg LPS with or without saline or 5-MTP at 12 h, 16 h and 24 h. COX-2 and inducible nitric oxide synthase (iNOS) protein levels in lung tissues were determined by immunohistochemistry by staining with anti-COX-2 and anti-iNOS antibodies, respectively. The results are shown in FIGS. 6A-6B, in which scale bars represent 100 μm. […]

[4] = test system: iNOS; assay: iNOS immunohistochemistry in lung tissues of LPS-treated mice; type: in vivo; settings: LPS 60 mg/kg; 12 h, 16 h and 24 h
Procedure: as §2, §3

[5] = test system: proinflammatory cytokines; assay: Proinflammatory cytokines level in serum of LPS-treated mice (ELISA); type: in vivo
Procedure: C57BL/6 mice (6-8 wks old) were treated intraperitoneally with saline or with different concentrations of 5-MTP (23.4 or 100 mg/kg) for 30 min before intraperitoneal administration of LPS (60 mg/kg). Animals were monitored for survival and other clinical signs including ruffled fur, lethargy, diarrhea, and body weight loss. Some animals were sacrificed at different times after LPS injection. Blood samples, peritoneal exudates, lungs, and spleens were collected. All mouse experiments were approved by the institutional Animal Care and Use Committee, National Health Research Institutes.
Cytokine levels in the culture supernatants and serum were determined in microtiter plates (96-well) by a specific sandwich ELISA (Biosource) as previously described (Wu, J. Y. & Kuo, C. C. Pivotal role of ADP-ribosylation factor 6 in Toll-like receptor 9-mediated immune signaling. J Biol Chem 287, 4323-4334 (2012)) (Lee, G. L., et al. TLR 2 induces vascular smooth muscle cell migration through cAMP response element-binding protein-mediated interleukin-6 production. Arterioscler Thromb Vasc Biol 32, 2751-2760 (2012); hereinafter, Lee, G. L., et al.).
Mice were injected intraperitoneally with or without different concentrations of 5-MTP or saline for 30 min, followed by LPS administration for the indicated time. Proinflammatory cytokines level in serum was measured by ELISA. (n=6 per group).

[6] = test system: neutrophil infiltration; assay: Neutrophil infiltration in lung tissues (Ly6G staining); type: in vivo, mice
Procedure: as §2
Thirty min after saline or 5-MTP administration, mice were injected intraperitoneally with LPS at 4 h, 12 h, 16 h and 24 h. Paraffin-embedded lung tissue specimens were subjected to immunohistochemical Ly6G staining for determination of neutrophil infiltration in lung tissues. The results are shown in FIG. 8A, in which scale bars represent 100 μm.

[7] = test system: Myeloperoxidase (MPO); assay: MPO activity assay in lung tissues; type: in vivo, mice; settings: 5-MTP 23.4 mg/kg, 16 h
Procedure: Myeloperoxidase (MPO) activity of lung tissue was assayed by Myeloperoxidase fluorometric detection kit (Enzo Life Sciences). In brief, lung tissue specimens were homogenized by Tissuelyser II (Qiagen) in tissue protein extraction buffer (pH 7.4 25 mM Tris buffer, 150 mM NaCl, 0.5% sodium deoxycholate, 2% NP-40 and 0.2% SDS), and centrifuged at 12,000×g for […] at 4° C. The supernatants were removed and the pellets were homogenized by Tissuelyser II for 30 seconds in 1 ml assay buffer with 0.5% hexadecyltrimethylammonium, and then samples were frozen, thawed three times, andcentrifuged at 8,000×g for 20 min. Collected supernatants and standard were mixed with reaction cocktail (50 μM detection reagent and 20 μM hydrogen peroxide in 1X assay buffer at room temperature in the dark. After 30 min incubation, MPO activity was determined by measuring the fluorescence intensity at excitation 530 nm and emission at 600 nm in a fluorescent plate reader.
In addition, MPO activity was determined in lung tissues of mice treated with saline or LPS in the presence or absence of 5-MTP (23.4 mg/kg) for 16 h (n=6 mice/group).

[8] = Spleen weight/body weight ratio in LPS-challenged mice; type: in vivo
Procedure: Furthermore, spleen weight/body weight (SW/BW) ratio was also assessed (n=6 mice/group).

[9] = test system: NF-κB; assay: NF-κB promoter-luciferase assay in RAW264.7 cells; type: cell-based, mouse; settings: LPS 8 h
Procedure: as §1
After pretreating RAW264.7 cells with different concentrations of 5-MTP for 30 min, cells were stimulated with LPS for 8 h. NF-κB promoter activity as measured by NF-κB promoter-luciferase assay.

[10] = LPS-treated mice, dose- and time-dependent

## COc1ccc2[nH]cc(C[C@H](N)C(=O)O)c2c1 [5-MTP, 5-methoxytryptophan]
[1]
  LPS-induced IL-6 promoter activity: inhibited
[2]
  duration of improved survival: maintained up to day 6
[2]; 5-MTP 30 mins after surgery
  survival at day 2: 44.4%
[3]
  COX-2 expression in lung tissues: suppresses
[4]
  iNOS expression in lung tissues: suppresses
[5]; 5-MTP at 23.4 mg/kg
  all the tested serum cytokines: significantly reduced
[5]; 5-MTP at 100 mg/kg
  all the tested serum cytokines: reduced the cytokines to the basal level
[5]; LPS-treated mice, data not shown
  rise of IL-12: suppressed the rise
[5]; [10]
  blood level of IL-1β: abated the elevation
  blood level of IL-6: abated the elevation
  blood level of INF-κ: abated the elevation
  blood level of TNF-α: abated the elevation
[6]; 5-MTP at 100 mg/kg
  neutrophil infiltration in lung tissues: reduced the infiltration almost to the basal level
[6]; LPS, 4 h, 12 h, 16 h and 24 h
  neutrophil infiltration in lung tissues: dose-dependently reduced
[7]
  lung MPO activity: reduced neutrophil infiltration to the basal level
[8]
  spleen weight/body weight (SW/BW) ratio, spleen edema: ameliorated spleen edema in a dose-dependent manner
[9]
  NF-κB promoter activity (transactivation): suppressed NF-κB transactivation in a concentration-dependent manner
